Source: patent US20150038435A1, “N-TERMINALLY MODIFIED OLIGOPEPTIDES AND USES THEREOF” (Novo Nordisk A/S, priority 2012, published 2015)
*: point of attachment. Lauroyl = CCCCCCCCCCCC(=O)*

How the values were obtained:
[1] = test system: Chymotrypsin; test: Inhibition of enzymatic degradation of a model GLP-1 (FRET substrate) by chymotrypsin; format: biochemical
From the text: (§1) The use of Förster resonance energy transfer (FRET), also known as fluorescence resonance energy transfer, substrates to monitor activity of proteolytic enzymes is known in the field (for example Anjuere, F. et al. (1993). Biochem J 291 (Pt 3), 869-73).
(§2) Model GLP-1 analogue was designed as FRET substrate by incorporation of 7-Methoxycoumarin-4-acetic acid (MCA) group as the donor chromophore and dinitrophenol group (DNP) as the acceptor chromophore.
(§3) An assay following the increase in fluorescence as a function of time was established in 96 well format using Varioskan Flash Multimode Meter (Thermo Scientific). Each well contained 70 μl of Dulbecco's phosphate buffer saline (Invitrogen catalogue #14190-094), 10 μl of 100 μM GLP-1 FRET substrate, 10 μl of N-terminally acylated peptide or oligopeptide of the invention in varying concentration and 10 μl of a stock solution of an enzyme (chymotrypsin, trypsin, elastase, etc.). The incubations were performed at 37° C. Fluorescence (320 nm excitation wavelength and 405 nm emission wavelength) was measured immediately after addition of the enzyme to the 96 well plate and also every minute for at least the next 30 minutes. The concentration of the enzyme was optimized to allow determination of slopes for the time course of initial fluorescence increase with and without the N-terminally acylated peptides or oligopeptides of the invention. The slopes were determined by linear regression of the linear part of the fluorescence trace (for example, the first 10 min of the reaction). Each assay was performed in duplicate and average of the two traces was included in the calculations. The relative effect of N-terminally acylated peptide or oligopeptides of the invention on enzymatic degradation of GLP-1 FRET substrate was obtained by comparison of the slopes achieved by the same concentration of the N-terminally acylated peptide or oligopeptides. […] This was done by plotting the slopes achieved with different concentrations of the N-terminally acylated peptide or oligopeptides of the invention as a function of their concentrations and fitting the experimental results using, for example, sigmoidal logistic regression (2 parameters, Sigma Plot v 11). Inhibition constants for the interaction between the N-terminally acylated peptide or oligopeptides of the invention and proteolytic enzymes were also obtained by performing the assay described above with varying concentrations of the inhibitor and substrate and analyzing the results, for example, by double reciprocal transformation as known to the person skilled in the art and described for example in Hubalek, F. et al., J. Med. Chem. 47, 1760-1766 (2004).
(§4) The EC50 was determined for the following compounds. EC50±standard error is reported if the results of at least 3 independent measurements were available.

[2] = test system: Trypsin; test: Inhibition of enzymatic degradation of a model GLP-1 (FRET substrate) by trypsin; format: biochemical
From the text: as §1, §2, §3, §4

[3] = Hydrophobicity: retention time during reverse phase HPLC; format: physicochemical; details: Acquity CSH C18; pH 7.2 buffer/CH3CN gradient; 40° C.
From the text: The retention time (RT) during reverse phase HPLC was taken as a measure of hydrophobicity of an N-terminally modified peptide or oligopeptide of the invention, where the connection is: The longer the RT, the more hydrophobic N-terminally modified peptide or oligopeptide. The following running conditions were applied during HPLC analysis:
Buffer B: 70% (v/v) aq. CH3CN

[4] = compound 0.1 mM, buffer containing 8% DMSO

Substance | Slope of the initial increase in fluorescence obtained during incubation with 0.001 mg/ml Chymotrypsin [1, 4] | Slope of the initial increase in fluorescence obtained during incubation with 0.001 mg/ml Trypsin [2, 4] | RT (retention time during reverse phase HPLC as a measure of hydrophobicity) [3] [min] | Slope of the initial increase in fluorescence obtained during incubation with 0.001 mg/ml Chymotrypsin ([1]; compound 1 mM) | EC50 ([1]; read-out: EC50 Chymotrypsin (0.001 mg/ml), 0.001 mg/ml chymotrypsin, 37° C., ± standard error if at least 3 measurements) [µM] | Slope of the initial increase in fluorescence obtained during incubation with 0.001 mg/ml Trypsin ([2]; compound 1 mM) | EC50 ([2]; read-out: EC50 Trypsin (0.001 mg/ml), 0.001 mg/ml trypsin, 37° C.) [µM]
N-dodecanoyl-Ala-Ala-Thr-Tyr-OH (Lauroyl-AATY-OH; SMILES CCCCCCCCCCCC(=O)N[C@@H](C)C(=O)N[C@@H](C)C(=O)N[C@H](C(=O)N[C@@H](Cc1ccc(O)cc1)C(=O)O)[C@@H](C)O) [Example 71] | 0.91 | 1.76 | 5.61 |  |  |  | 
N-dodecanoyl-Met-Ala-Pro-Tyr-OH (Lauroyl-MAPY-OH; SMILES CCCCCCCCCCCC(=O)N[C@@H](CCSC)C(=O)N[C@@H](C)C(=O)N1CCC[C@H]1C(=O)N[C@@H](Cc1ccc(O)cc1)C(=O)O) [Example 47] | 0.48 | 1.77 | 7.09 |  |  |  | 
N-dodecanoyl-Ser-Pro-Tyr-OH [Example 107] | 0.89 | 1.99 | 5.58 |  |  |  | 
N-dodecanoyl-Ala-Tyr-Pro-Tyr-OH (Lauroyl-AYPY-OH; SMILES CCCCCCCCCCCC(=O)N[C@@H](C)C(=O)N[C@@H](Cc1ccc(O)cc1)C(=O)N1CCC[C@H]1C(=O)N[C@@H](Cc1ccc(O)cc1)C(=O)O) [Example 89] | 0.80 | 1.86 | 6.23 |  |  |  | 
N-dodecanoyl-Asp-Ala-Ala-Pro-Tyr-OH [Example 95] | 0.10 | 1.82 | 3.92 |  |  |  | 
N-dodecanoyl-Arg-Ala-Ala-Pro-Tyr-OH [Example 91] | 0.00 | 1.06 | 4.63 |  |  |  | 
N-tetradecanoyl-Ala-Ala-Pro-Phe-OH [Example 3] |  |  | 9.74 | 0.01 | 57 ± 2 | 0.37 | 74
N-dodecanoyl-βAla-Ala-Pro-Phe-OH [Example 8] |  |  | 6.13 | 0.03 |  | 0.70 | 
N-dodecanoyl-Asn-Ala-Pro-Tyr-OH (Lauroyl-NAPY-OH; SMILES CCCCCCCCCCCC(=O)N[C@@H](CC(N)=O)C(=O)N[C@@H](C)C(=O)N1CCC[C@H]1C(=O)N[C@@H](Cc1ccc(O)cc1)C(=O)O) [Example 94] | 1.83 | 1.90 | 4.77 |  |  |  | 
N-dodecanoyl-Ala-Val-Pro-Tyr-OH (Lauroyl-AVPY-OH; SMILES CCCCCCCCCCCC(=O)N[C@@H](C)C(=O)N[C@H](C(=O)N1CCC[C@H]1C(=O)N[C@@H](Cc1ccc(O)cc1)C(=O)O)C(C)C) [Example 90] | 0.35 | 1.25 | 6.6 |  |  |  | 
N-dodecanoyl-Ala-Val-Tyr-OH [Example 112] | 1.44 | 2.35 | 6.6 |  |  |  | 
